Data taken from ChEMBL document CHEMBL1124686.
Active and inactive are the calls of the source. The rule behind the calls is not given here.

Assays:
[1] = target: D(2) dopamine receptor (Mus musculus) (UniProt P61168); assay: Compound was evaluated for its ability to inhibit the potassium -induced release of [3H]- acetylcholine release in mouse striatal […] by stimulating dopamine receptor D2; details: Striatum
[2] = target: D(2) dopamine receptor (Mus musculus) (UniProt P61168); assay: Compound was evaluated for its ability to inhibit the potassium -induced release of [3H]- acetylcholine release in mouse striatal […] by stimulating D2 receptor; details: Striatum
[3] = target: D(2) dopamine receptor (Mus musculus) (UniProt P61168); details: Striatum; Membrane
Description: Compound was evaluated for its ability to inhibit the potassium -induced release of [3H]- acetylcholine release in mouse striatal membranes by stimulating Dopamine receptor D2

[4] = target: D(2) dopamine receptor (Mus musculus) (UniProt P61168); assay: The dissociation constant for the inhibition of agonist effect on the K+ evoked release of [3H]- acetylcholine in mouse striatal […]; NS means No statistically significant antagonism observed in […]; assay type: functional

Sequence of D(2) dopamine receptor (Mus musculus) (P61168 whole entry): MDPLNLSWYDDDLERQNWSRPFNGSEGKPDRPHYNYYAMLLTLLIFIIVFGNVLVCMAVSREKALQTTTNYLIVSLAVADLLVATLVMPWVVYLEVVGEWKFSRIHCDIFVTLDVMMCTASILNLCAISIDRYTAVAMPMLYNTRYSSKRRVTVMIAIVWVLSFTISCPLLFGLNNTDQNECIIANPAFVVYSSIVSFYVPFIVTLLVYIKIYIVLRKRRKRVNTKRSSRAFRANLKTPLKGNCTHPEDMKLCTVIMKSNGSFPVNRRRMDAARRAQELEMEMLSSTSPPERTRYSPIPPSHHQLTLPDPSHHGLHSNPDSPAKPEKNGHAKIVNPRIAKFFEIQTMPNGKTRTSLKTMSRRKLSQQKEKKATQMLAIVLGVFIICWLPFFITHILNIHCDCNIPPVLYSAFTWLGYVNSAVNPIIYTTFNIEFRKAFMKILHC

Row | ED50 [1] [nM] | SMILES | other results
1 | 26.3 | CC[N+]1(CC)CCCC1CNC(=O)c1cc(S(N)(=O)=O)ccc1OC (stereo unspecified) | –
2 | – | CC[S+]1CCCC1CNC(=O)c1cc(S(N)(=O)=O)ccc1OC (stereo unspecified) | ED50 [2]: 38.4 nM
3 | – | CCN1CCCC1CNC(=O)c1cc(S(N)(=O)=O)ccc1OC (stereo unspecified) | ED50 [3]: 75.9 nM
4 | 25.1 | CC[N+]1(C)CCCC1CNC(=O)c1cc(S(N)(=O)=O)ccc1OC (stereo unspecified) | –
5 | 48.1 | COc1ccc(S(N)(=O)=O)cc1C(=O)NCC1CCCS1 (stereo unspecified) | Kb [4]: inactive
